These results are taken from patent US6258811A, “Methods for preventing, inhibiting or treating graft rejection reactions in graft-versus-host disease (GVHD) and organ transplantation” (Eisai Co., Ltd., priority 1996, dated 2001).

Each structure is given as a SMILES string. pIC50: −log10 of the molar value. Bounds are passed on as bounds.

One data set addresses T1, RAR-α (Homo sapiens, UniProt P10276).
T1 sequence (P10276 1-462): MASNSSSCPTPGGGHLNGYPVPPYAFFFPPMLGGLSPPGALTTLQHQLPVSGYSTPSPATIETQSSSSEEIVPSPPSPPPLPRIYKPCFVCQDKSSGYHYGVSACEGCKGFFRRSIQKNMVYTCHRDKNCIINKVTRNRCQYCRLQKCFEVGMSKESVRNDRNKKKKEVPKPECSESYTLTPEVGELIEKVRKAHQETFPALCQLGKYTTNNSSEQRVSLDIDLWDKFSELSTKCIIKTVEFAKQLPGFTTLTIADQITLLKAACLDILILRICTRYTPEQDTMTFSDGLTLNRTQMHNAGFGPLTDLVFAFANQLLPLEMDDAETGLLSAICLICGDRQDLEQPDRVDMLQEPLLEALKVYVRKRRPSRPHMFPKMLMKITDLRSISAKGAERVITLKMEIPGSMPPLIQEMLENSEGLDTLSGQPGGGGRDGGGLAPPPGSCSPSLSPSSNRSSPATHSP
Description: RAR-mediated transcriptional promotion activity, RAR-α. The note with it: ED30 of all-trans-retinoic acid taken as 1; 3 μM all-trans-retinoic acid = 100%. The class given is cell-based. The source says: (§1) Retinoic acid receptor (RAR) binding assay and RAR-mediated transcriptional promotion activity of compound represented by formula (I): […]

The target in data set [1] is T2, RAR-β (Homo sapiens, UniProt P10826).
T2 sequence (P10826 1-455): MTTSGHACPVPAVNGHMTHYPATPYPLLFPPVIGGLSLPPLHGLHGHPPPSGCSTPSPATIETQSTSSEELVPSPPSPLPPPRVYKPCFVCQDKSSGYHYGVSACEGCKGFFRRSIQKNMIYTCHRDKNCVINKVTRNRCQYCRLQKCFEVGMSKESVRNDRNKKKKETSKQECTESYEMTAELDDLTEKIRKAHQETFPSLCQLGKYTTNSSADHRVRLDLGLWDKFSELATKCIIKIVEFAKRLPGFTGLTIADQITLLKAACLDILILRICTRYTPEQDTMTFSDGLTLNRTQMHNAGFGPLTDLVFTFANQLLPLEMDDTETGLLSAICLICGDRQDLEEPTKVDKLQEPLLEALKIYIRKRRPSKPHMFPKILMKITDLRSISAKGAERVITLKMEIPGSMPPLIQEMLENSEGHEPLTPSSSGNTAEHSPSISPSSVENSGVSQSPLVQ
Kind of data set: RAR-mediated transcriptional promotion activity, RAR-β. The note with it: ED30 of all-trans-retinoic acid taken as 1; 3 μM all-trans-retinoic acid = 100%. Format: cell-based.
Source text: as §1

The target of another data set is T3, RAR-γ (Homo sapiens, UniProt P13631).
T3 sequence (P13631 1-454): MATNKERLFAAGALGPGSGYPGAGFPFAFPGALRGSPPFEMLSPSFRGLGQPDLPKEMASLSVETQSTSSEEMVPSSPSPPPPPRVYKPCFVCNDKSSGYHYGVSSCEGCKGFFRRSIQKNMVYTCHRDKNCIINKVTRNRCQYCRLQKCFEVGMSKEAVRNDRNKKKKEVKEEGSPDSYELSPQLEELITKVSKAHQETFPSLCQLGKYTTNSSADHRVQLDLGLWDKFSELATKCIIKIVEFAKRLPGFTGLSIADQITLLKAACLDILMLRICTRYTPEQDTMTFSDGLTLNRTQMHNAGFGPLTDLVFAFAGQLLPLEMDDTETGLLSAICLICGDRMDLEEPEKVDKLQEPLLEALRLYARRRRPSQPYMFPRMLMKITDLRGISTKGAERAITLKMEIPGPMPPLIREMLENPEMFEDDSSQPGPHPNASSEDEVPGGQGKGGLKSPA
Description: RAR-mediated transcriptional promotion activity, RAR-γ. Format: cell-based. Particulars: ED30 of all-trans-retinoic acid taken as 1; 3 μM all-trans-retinoic acid = 100%.
Source text: as §1

The test system of another data set is rat adjuvant arthritis. Particulars: Science 221, 756, 1983; cited from earlier work.
A further data set deals with patients. Particulars: background; cited from earlier work.
In the next data set the test system is P-815(H-2d). Kind of data set: Acute GVHD model: cytotoxic T cell activity of donor on host. The class given is in vivo, mice (BDF1 hosts, C57BL/6N donors). Particulars: oral, once a day, 12 to 13 days after cell transfer. The source says: (§2) A graft-versus-host disease (GVHD) model experiment was effected in accordance with the method reported by Durei et al. (J. Clin. Invest., 94, 1333 1994.).
(§3) As the indication of an acute GVHD model (1), use was made of the cytotoxic T cell activity of a donor on a host. As the indication of a chronic GVHD model (2), use was made of the blood antiDNA antibody titer.
In the transplantation, BDF1 mice (H-2b/d) and C57BL/6N mice (H-2b) were employed respectively as the hosts and donors. 5×10^7 /mouse of donors' spleen cells were transferred into the hosts via the tail vein. 4-{2-[5-(4,7-Dimethylbenzofuran-2-yl)pyrrolyl]}benzoic acid (compound A) was suspended in a 0.5% aqueous solution of methylcellulose and then orally administered to the hosts once a day from the first day of the cell transfer to the day before the measurement of the cytotoxic T cell activity. The 0.5% aqueous solution of methylcellulose alone was similarly administered to the control group. 12 to 13 days after the cell transfer, the spleen of each host animal was taken out and a suspension of the spleen cells to be used as effector cells was prepared. As the target cells, use was made of P-815(H-2d) which were cultured together with the effector cells for 4 hours. The cytotoxicity (%) was expressed as the percentage of ^51 Cr liberated into the culture supernatant during this culture time to the total radioactivity.

The subject of data set [2] is serum antiDNA antibody titer (IgG class). Description: Chronic GVHD model: serum antiDNA antibody titer (ELISA). The class given is in vivo, mice (BDF1 hosts, DBA/2 donors). Particulars: oral, once a day, two weeks after cell transfer.
Source text: as §2, §3
In the transplantation, BDF1 mice (H-2b/d) and DBA/2 mice (H-2d) were employed respectively as the hosts and donors. 5×10^7 /mouse of donors' spleen cells were transferred into the hosts via the tail vein. 4-{2-[5-(4,7-Dimethylbenzofuran-2-yl)pyrrolyl]}benzoic acid was dissolved in a 0.5% aqueous solution of methylcellulose and then orally administered to the hosts once a day from the first day of the cell transfer to the day before the blood sampling. The 0.5% aqueous solution of methylcellulose alone was similarly administered to the control group. Two weeks after the cell transfer, the blood of each host animal was sampled and the serum antiDNA antibody titer (IgG class) was measured by the ELISA method.

Data set [3] has as its target T2, RAR-β. Kind of data set: Receptor binding assay, RAR-β.
Source text: as §1

For another data set, the system named is chronic GVHD. Particulars: cyclosporin A and prednisolone, bone marrow transplantation patients; cited from earlier work.
A further data set has as its system immune system. Particulars: background; cited from earlier work.

With `O=C(O)c1ccc(-c2ccc(-c3cc4c(F)ccc(Cl)c4o3)[nH]2)cc1`, the “Transcriptional promotion activity, Relative ED30, RAR-α” value at RAR-α is recorded as 0.33. In addition, the “Transcriptional promotion activity, Relative ED30, RAR-β” value at RAR-β [1] was 91. For the same molecule, the “Transcriptional promotion activity, Relative ED30, RAR-γ” value at RAR-γ stood at 790.
Consider `O=C(O)c1ccc(-c2ccc(-c3cc4c(C(F)(F)F)ccc(F)c4o3)[nH]2)cc1`, for which, on RAR-α, the “Transcriptional promotion activity, Relative ED30, RAR-α” value worked out at 0.33. Also, at RAR-β [1], the “Transcriptional promotion activity, Relative ED30, RAR-β” value amounted to 8.1. Further, the “Transcriptional promotion activity, Relative ED30, RAR-γ” value on RAR-γ is on record as 95.
As to `Cc1ccc(C)c2c(F)c(-c3ccc(-c4ccc(C(=O)O)cc4)[nH]3)oc12`, on RAR-α, the “Transcriptional promotion activity, Relative ED30, RAR-α” value is 0.39. The “Transcriptional promotion activity, Relative ED30, RAR-β” value at RAR-β [1] was 2.8. The “Transcriptional promotion activity, Relative ED30, RAR-γ” value on RAR-γ stood at 31.
With `CCc1ccc(C)c2cc(-c3ccc(-c4ccc(C(=O)O)cc4)[nH]3)oc12`, the “Transcriptional promotion activity, Relative ED30, RAR-α” value on RAR-α amounted to 0.26. Besides, at RAR-β [1], the “Transcriptional promotion activity, Relative ED30, RAR-β” value turned out to be 24. For the same molecule, the “Transcriptional promotion activity, Relative ED30, RAR-γ” value on RAR-γ came to 120.
For `CC1(C)CCC(C)(C)c2nc(-c3ccc(-c4ccc(C(=O)O)cc4)[nH]3)cnc21`, on RAR-α, the “Transcriptional promotion activity, Relative ED30, RAR-α” value came to 0.21. Besides, the “Transcriptional promotion activity, Relative ED30, RAR-β” value at RAR-β [1] is listed as 1.4. Besides, the “Transcriptional promotion activity, Relative ED30, RAR-γ” value on RAR-γ is 19.
Take `CC1=C(/C=C/C(C)=C/C=C/C(C)=C\C(=O)O)C(C)(C)CCC1` [13-cis-retinoic acid]: the “secondary inflammation in rat adjuvant arthritis” value with rat adjuvant arthritis is recorded as “significantly suppressed”.
Turning to `Cn1cnc([N+](=O)[O-])c1Sc1ncnc2nc[nH]c12` [azathioprine], the side effects entry in the data set on patients was “bone marrow depression, hepatic disorder, pancreatitis, digestive tract symptoms, cardiopalmus and respiratory disorder”.
Take `Cc1ccc(C)c2oc(-c3ccc(-c4ccc(C(=O)O)cc4)[nH]3)cc12` [compound A, 4-{2-[5-(4,7-Dimethylbenzofuran-2-yl)pyrrolyl]}benzoic acid]: the minimal effective dose is ≥ 0.1 mg/kg with P-815(H-2d) (Mus musculus, P815, read-out: dose from which induction of the cytotoxic T cell activity was inhibited dose-dependently) and ≥ 0.3 mg/kg in [2] (Mus musculus, 336 h, read-out: dose from which serum antiDNA antibody titer was inhibited dose-dependently). Moreover, the “induction of the cytotoxic T cell activity” value in the data set on P-815(H-2d) was “strongly inhibited the induction of the cytotoxic T cell activity dose-dependently”. Besides, the “serum antiDNA antibody titer” value in data set [2] was “strongly inhibited the serum antiDNA antibody titer dose-dependently”.
Regarding `O=C(O)c1ccc(-c2ccc(-c3cc4c(Cl)ccc(Cl)c4o3)[nH]2)cc1` [drawing 8], the pIC50 at RAR-β [3] was 6.30.
With `Cc1ccc(C)c2oc(-c3ccc(-c4ccc(C(=O)O)cc4)[nH]3)cc12` [drawing 14], the “Transcriptional promotion activity, Relative ED30, RAR-α” value at RAR-α is recorded as 0.4. Also, the “Transcriptional promotion activity, Relative ED30, RAR-β” value on RAR-β [1] was 13. Also, at RAR-γ, the “Transcriptional promotion activity, Relative ED30, RAR-γ” value was 191.
Taken in the same sequence, the figures for `O=C(O)c1ccc(-c2ccc(-c3cc4c(Cl)ccc(Cl)c4o3)[nH]2)cc1` [drawing 15] were 1.0, 160 and 1400.
For `CN(Cc1cnc2nc(N)nc(N)c2n1)c1ccc(C(=O)N[C@@H](CCC(=O)O)C(=O)O)cc1` [methotrexate], the side effects result in the data set on patients is listed as “bone marrow depression, hepatic/renal function disorder, mucosal disorder, psychoneurosis, interstitial pneumonia, pulmonary fibrosis, etc”.
As to `C[C@]12C=CC(=O)C=C1CC[C@@H]1[C@@H]2[C@@H](O)C[C@@]2(C)[C@H]1CC[C@]2(O)C(=O)CO` [prednisolone], the “effect on chronic GVHD” value in the data set with chronic GVHD is recorded as “no satisfactory effect”. Moreover, the side effects result with patients is reported as “induced infectious diseases, peptic ulcer, etc”.
For `CC1=C(/C=C/C(C)=C/C=C/C(C)=C/C(=O)O)C(C)(C)CCC1` [retinoic acid], in the data set on immune system, the “effect on the immune system” value was “suppressive effect on the immune system”.
For the molecule `C=CC[C@@H]1/C=C(\C)C[C@H](C)C[C@H](OC)[C@H]2O[C@@](O)(C(=O)C(=O)N3CCCC[C@H]3C(=O)O[C@H](/C(C)=C/[C@@H]3CC[C@@H](O)[C@H](OC)C3)[C@H](C)[C@@H](O)CC1=O)[C@H](C)C[C@@H]2OC` [tacrolimus (FK 506), tacrolimus], the side effects result in the data set on patients was “renal function disorder, shock, elevation of blood pressure, heart failure, pancreatitis,hemolytic-uremic syndrome, thrombotic thrombopenia, purpura and hyperglycemia”.
